Assay results from patent US9913850B2, “Bile acids and biguanides as protease inhibitors for preserving the integrity of peptides in the gut” (AXCESS LIMITED, priority 2008, dated 2018).

Columns and labels:
[1] = molecular target: T1, Thrombin (Bos taurus, UniProt P00735); experiment: Thrombin inhibition, chromogenic substrate N-Benzoyl-Phe-Val-Arg-p-nitroanilide; assay type: biochemical; conditions: Examples 10, 11; thrombin from bovine plasma; bile salt from 100 mg/ml; 37° C., up to 30 minutes; FIGS. 13, 14
T1 construct: Thrombin, from bovine plasma; from tissue; host or cells: bovine plasma
Method: Thrombin, from bovine plasma, was dissolved in HBSS at a concentration of 0.5 mg/ml. The substrate N-Benzoyl-Phe-Val-Arg-p-nitroanilide hydrochloride was dissolved in HBSS at a concentration of 0.5 mg/ml, and sodium chenodeoxycholate was dissolved at a range of concentrations starting at 100 mg/ml. The assay was conducted in the wells of 96-well clear plastic microplates, in which 50:1 of enzyme solution and 100:1 of bile salt were mixed together, and then 50:1 of substrate was added, with mixing, at the start of the reaction, which proceeded at 37° C. for up to 30 minutes, with measurement at various intermediate time points. The progress of the enzymatic reaction was assessed by measuring the appearance of reaction product (p-nitroaniline) colorimetrically using a wavelength of 405 nm on an Anthos reader 2001 from Anthos Labtec Instruments.
Example 10 was repeated but with sodium deoxycholate instead of sodium chenodeoxycholate.

[2] = molecular target: T2, chymotrypsin (Bos taurus, UniProt P00766); experiment: Chymotrypsin inhibition, fluorogenic peptide substrates; assay type: biochemical, bovine
T2 construct: Chymotrypsin, from bovine plasma; from tissue
Method: (§1) The following Examples serve to illustrate the present invention, and should not be construed as limiting.
(§2) Trypsin, from bovine pancreas, was dissolved in Hanks Balanced Salt Solution (HBSS) at a concentration of 0.02 mg/ml. The substrate Z-L-arginine 4-methyl-7coumarinylamide was dissolved in HBSS at a concentration of 0.01 mg/ml, and sodium chenodeoxycholate was dissolved at a range of concentrations starting at 100 mg/ml. The assay was conducted in the wells of 96-well black plastic microplates, in which 20:1 of enzyme solution and 60:1 of bile salt were mixed together, and then 20:1 of substrate was added, with mixing, at the start of the reaction, which proceeded at room temperature for up to 30 minutes, with measurement at various intermediate time points.
Example 1 was repeated but with chymotrypsin as the protease (instead of trypsin) and with glutaryl-L-phenylalanine 4-methyl-7-coumarinylamide as the substrate.
Example 2 was repeated but with sodium deoxycholate instead of sodium chenodeoxycholate.
(§3) Chymotrypsin, from bovine plasma, was dissolved in HBSS at a concentration of 0.02 mg/ml. The substrate Boc-β-benzyl-Asp-Pro-Arg-7-amido-4-methylcoumarin was dissolved in HBSS at a concentration of 0.01 mg/ml, and sodium chenodeoxycholate was dissolved at 100 mg/ml. The assay was conducted in the wells of 96-well clear plastic microplates, in which 20:1 of enzyme solution and 60:1 of bile salt were mixed together, and then 20:1 of substrate was added, with mixing, at the start of the reaction, which proceeded at 37° C. for up to 30 minutes, with measurement at various intermediate time points.

[3] = molecular target: T3, Trypsin (Bos taurus, UniProt P00760); experiment: Trypsin inhibition, fluorogenic substrate Z-L-arginine 4-methyl-7-coumarinylamide; assay type: biochemical, bovine; conditions: up to 30 minutes
T3 construct: Trypsin, from bovine pancreas; from tissue; host or cells: bovine pancreas
T3 sequence (P00760 24-246): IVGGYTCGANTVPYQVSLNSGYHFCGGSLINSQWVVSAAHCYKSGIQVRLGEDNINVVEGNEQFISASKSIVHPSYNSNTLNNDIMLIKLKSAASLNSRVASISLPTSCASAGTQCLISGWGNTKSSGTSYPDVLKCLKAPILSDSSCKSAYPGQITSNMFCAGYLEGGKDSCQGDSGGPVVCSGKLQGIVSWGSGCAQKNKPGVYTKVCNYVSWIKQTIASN
Method: as §1, §2
Example 1 was repeated but with sodium deoxycholate instead of sodium chenodeoxycholate.
as §2, with “HBSS” for “Hanks Balanced Salt Solution (HBSS)”, “4-methyl-7-coumarinylamide” for “4-methyl-7coumarinylamide”, “ursodeoxycholate” for “chenodeoxycholate”, “50” for “100”, “100:1” for “60:1”, “37° C.” for “room temperature”
as §2, with “HBSS” for “Hanks Balanced Salt Solution (HBSS)”, “4-methyl-7-coumarinylamide” for “4-methyl-7coumarinylamide”, “glycodeoxycholate” for “chenodeoxycholate”, “100:1” for “60:1”, “37° C.” for “room temperature”
Example 5 was repeated but with sodium glycochenodeoxycholate instead of sodium ursodeoxycholate.
Example 6 was repeated but with sodium glycocholate instead of sodium glycodeoxycholate.
Example 9 was repeated but with trypsin (instead of chymotrypsin) from bovine plasma, Z-L-arginine 4-methyl-7-coumarinylamide as the substrate and metformin as the inhibitor.
as §3, with “Trypsin,” for “Chymotrypsin,”, “pancreas,” for “plasma,”, “Z-L-arginine 4-methyl-7-coumarinylamide” for “Boc-β-benzyl-Asp-Pro-Arg-7-amido-4-methylcoumarin”, “phenformin” for “sodium chenodeoxycholate”, “black” for “clear”, “100:1” for “60:1”

[4] = test system: gut proteases; experiment: Inhibition of gut proteases, general statement; assay type: biochemical; conditions: see FIGS. 5 and 6
[5] = Example 4, substrate glutaryl-L-phenylalanine 4-methyl-7-coumarinylamide, bile salt 25 mg/ml, FIG. 6
[6] = Example 3, bile salt 25 mg/ml, room temperature, FIG. 5
[7] = Examples 5-8, 13, trypsin from bovine pancreas, 37° C., FIGS. 7-11, 16

C[C@H](CCC(=O)O)[C@H]1CC[C@H]2[C@@H]3[C@H](O)C[C@@H]4C[C@H](O)CC[C@]4(C)[C@H]3CC[C@]12C [chenodeoxycholate, sodium chenodeoxycholate]
Inhibition of thrombin activity over time [1]: Inhibition of enzyme activity | Inhibition of chymotrypsin activity over time and dose response ([2]; Example 2, substrate glutaryl-L-phenylalanine 4-methyl-7-coumarinylamide, bile salt from 100 mg/ml, FIGS. 3, 4): Inhibition of enzyme activity | Inhibition of chymotrypsin activity over time ([2]; Example 9, chymotrypsin from bovine plasma, substrate Boc-β-benzyl-Asp-Pro-Arg-7-amido-4-methylcoumarin, 100 mg/ml, 37° C., FIG. 12): Inhibition of enzyme activity | Inhibition of trypsin activity over time and dose response ([3]; Example 1, trypsin from bovine pancreas, bile salt from 100 mg/ml, room temperature, FIGS. 1, 2): Inhibition of enzyme activity

C[C@H](CCC(=O)O)[C@H]1CC[C@H]2[C@@H]3[C@H](O)C[C@@H]4C[C@H](O)CC[C@]4(C)[C@H]3C[C@H](O)[C@]12C [cholate, cholic acid]
Inhibitory effect on gut proteases [4]: do not have this inhibitory effect | Inhibition of chymotrypsin activity over time [2, 5]: do not inhibit chymotrypsin | Inhibition of trypsin activity over time [3, 6]: do not inhibit trypsin

C[C@H](CCC(=O)[O-])[C@H]1CC[C@H]2[C@@H]3CC[C@@H]4C[C@H](O)CC[C@]4(C)[C@H]3C[C@H](O)[C@]12C.[Na+] [deoxycholate, sodium deoxycholate]
Inhibition of thrombin activity over time [1]: Inhibition of enzyme activity | Inhibition of chymotrypsin activity over time [2, 5]: Inhibition of enzyme activity | Inhibition of trypsin activity over time [3, 6]: Inhibition of enzyme activity

C[C@H](CCC(=O)NCC(=O)O)[C@H]1CC[C@H]2[C@@H]3[C@H](O)C[C@@H]4C[C@H](O)CC[C@]4(C)[C@H]3CC[C@]12C [glycochenodeoxycholate, sodium glycochenodeoxycholate]
Inhibition of trypsin activity over time [3, 7]: Inhibition of enzyme activity

C[C@H](CCC(=O)NCC(=O)O)[C@H]1CC[C@H]2[C@@H]3[C@H](O)C[C@@H]4C[C@H](O)CC[C@]4(C)[C@H]3C[C@H](O)[C@]12C [glycocholate, sodium glycocholate]
Inhibition of trypsin activity over time [3, 7]: Inhibition of enzyme activity

C[C@H](CCC(=O)NCC(=O)[O-])[C@H]1CC[C@H]2[C@@H]3CC[C@@H]4C[C@H](O)CC[C@]4(C)[C@H]3C[C@H](O)[C@]12C.[Na+] [glycodeoxycholate, sodium glycodeoxycholate]
Inhibition of trypsin activity over time [3, 7]: Inhibition of enzyme activity

CN(C)C(=N)N=C(N)N [metformin]
Inhibition of trypsin activity over time ([3]; Example 12, trypsin from bovine plasma, 37° C., FIG. 15): Inhibition of enzyme activity

[H]/N=C(/N)N/C(=N/[H])NCCc1ccccc1 [phenformin]
Inhibition of trypsin activity over time [3, 7]: Inhibition of enzyme activity

C[C@H](CCC(=O)NCCS(=O)(=O)O)[C@H]1CC[C@H]2[C@@H]3[C@H](O)C[C@@H]4C[C@H](O)CC[C@]4(C)[C@H]3C[C@H](O)[C@]12C [taurocholate, taurocholic acid]
Inhibitory effect on gut proteases [4]: do not have this inhibitory effect | Inhibition of chymotrypsin activity over time [2, 5]: do not inhibit chymotrypsin | Inhibition of trypsin activity over time [3, 6]: do not inhibit trypsin

C[C@H](CCC(=O)NCCS(=O)(=O)O)[C@H]1CC[C@H]2[C@@H]3CC[C@@H]4C[C@H](O)CC[C@]4(C)[C@H]3C[C@H](O)[C@]12C [taurodeoxycholate, taurodeoxycholic acid]
Inhibitory effect on gut proteases [4]: do not have this inhibitory effect | Inhibition of trypsin activity over time [3, 6]: do not inhibit trypsin

C[C@H](CCC(=O)O)[C@H]1CC[C@H]2[C@@H]3[C@@H](O)C[C@@H]4C[C@H](O)CC[C@]4(C)[C@H]3CC[C@]12C [ursodeoxycholate, sodium ursodeoxycholate]
Inhibition of trypsin activity over time [3, 7]: Inhibition of enzyme activity
